TGI and GI50 data for 22 compounds are collected here from PubChem BioAssay (NCI).

Among the test systems are 786-0 renal; ACHN renal; HL-60(TB) leukemia; HT29 colon; IGROV1 ovarian; K-562 leukemia; OVCAR-3 ovarian; RXF 393 renal; SF-539 CNS; SK-MEL-5 melanoma.
What all share (test): NCI anticancer screen, dose series, 48 h

Several values for one entry are separate records, joined by “and”; a condition that tells them apart may be missing. Identical values can stand only once.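 Following 48 hours of exposure in 96-well plates, responses at five concentrations were used to interpolate endpoints linearly. The concentration for 50% growth inhibition is given as GI50. TGI marks complete inhibition of growth.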

On to `OC1C[C@H](c2ccccc2)C2(C(O)c3ccccc3C2O)[C@@H](c2ccccc2)C1` (some centres not stated), for which the TGI with 786-0 renal, in the assay with ACHN renal, in the assay with HL-60(TB) leukemia, with HT29 colon, in the assay with IGROV1 ovarian and with K-562 leukemia was greater than 100 µM in each case. Further, the TGI in the assay on OVCAR-3 ovarian, in the assay on RXF 393 renal, with SF-539 CNS and in the assay on SK-MEL-5 melanoma was greater than 100 µM each time.

Consider `O=c1c2ccccc2nc(N/N=C/c2ccccc2O)n1-c1ccccc1`, for which the TGI with 786-0 renal is 2.86 µM; in the assay with ACHN renal it was greater than 100 µM; with HL-60(TB) leukemia it was 8.07 µM; in the assay with HT29 colon, greater than 100 µM; in the assay on IGROV1 ovarian, greater than 100 µM; in the assay with K-562 leukemia, greater than 100 µM. In addition, the TGI in the assay with OVCAR-3 ovarian was 17.2 µM; in the assay on RXF 393 renal, greater than 100 µM; in the assay on SF-539 CNS, greater than 100 µM; in the assay with SK-MEL-5 melanoma it was greater than 100 µM.

Consider `C[C@H]1COC2=C1C(=O)C(=O)c1c2ccc2c1CCCC2(C)C`, for which the TGI in the assay on 786-0 renal is 35.2 µM; in the assay on ACHN renal, greater than 81.7 µM; in the assay with HL-60(TB) leukemia it was 42.3 µM; in the assay with HT29 colon, 7.39 µM; in the assay with IGROV1 ovarian, 29.2 µM; in the assay on K-562 leukemia, greater than 100 µM. In addition, the TGI with OVCAR-3 ovarian stood at 5.92 µM; in the assay on RXF 393 renal, 55.6 µM; in the assay on SF-539 CNS, 18.2 µM; in the assay with SK-MEL-5 melanoma, 1.43 µM.

Turning to `CCC(NC1=NCCO1)c1cccs1` (configuration not stated), the TGI came to 28.7 µM in the assay on 786-0 renal; 29.4 µM in the assay on ACHN renal; 82.7 µM in the assay on HL-60(TB) leukemia; 63.9 µM with HT29 colon; 39.3 µM in the assay with IGROV1 ovarian; 47.4 µM with K-562 leukemia. The TGI in the assay on OVCAR-3 ovarian came out at 30.6 µM; in the assay with RXF 393 renal, 33.2 µM; in the assay on SF-539 CNS, 29.8 µM; with SK-MEL-5 melanoma, 30.6 µM.

On to `COc1cc(CS(=O)c2ccc(O)cc2)cc(OC)c1OC` (configuration not stated), for which the TGI with 786-0 renal, in the assay on ACHN renal, in the assay on HL-60(TB) leukemia, in the assay with HT29 colon, with IGROV1 ovarian and in the assay with K-562 leukemia was greater than 100 µM in each case. Besides, the TGI in the assay with OVCAR-3 ovarian, in the assay on RXF 393 renal, with SF-539 CNS and with SK-MEL-5 melanoma was greater than 100 µM in each case.

`CC(C)(C)[Si](C)(C)OCC1OC(n2cnc3c(=O)[nH]c(N)nc32)C(O[Si](C)(C)C(C)(C)C)C1O[Si](C)(C)C(C)(C)C` (configuration not stated): the TGI was 4.88 µM with 786-0 renal; 12.9 µM in the assay with ACHN renal; 2.34 µM with HL-60(TB) leukemia; 4.16 µM in the assay with HT29 colon; 3.91 µM with IGROV1 ovarian; 2.76 µM in the assay on K-562 leukemia. The TGI in the assay on OVCAR-3 ovarian came to 3.56 µM; with RXF 393 renal it was 4.69 µM; with SF-539 CNS, 5.72 µM; with SK-MEL-5 melanoma, 1.77 µM.

`O=c1oc2ccccc2c(O)c1C(C/C(CCN1CCCC1)=N\Nc1ccccc1)c1ccccc1` (configuration not stated): the TGI was greater than 100 µM in the assay with 786-0 renal; greater than 100 µM in the assay with ACHN renal; 60 µM in the assay with HL-60(TB) leukemia; greater than 100 µM in the assay on HT29 colon; greater than 100 µM with IGROV1 ovarian; greater than 100 µM with K-562 leukemia. Also, the TGI was greater than 100 µM with OVCAR-3 ovarian, 93 µM in the assay with RXF 393 renal, greater than 100 µM in the assay on SF-539 CNS and greater than 100 µM with SK-MEL-5 melanoma.

For the compound `c1ccc(CN2CCN3CCN(CC2)CCN(Cc2ccccc2)CC3)cc1`, the TGI amounted to 18.2 µM in the assay on 786-0 renal; 65.6 µM in the assay with ACHN renal; 8.32 µM in the assay with HL-60(TB) leukemia; 17.2 µM with HT29 colon; 22.1 µM in the assay on IGROV1 ovarian; 25.6 µM in the assay on K-562 leukemia. The TGI with OVCAR-3 ovarian is 24.5 µM; in the assay on RXF 393 renal, 21.3 µM; with SF-539 CNS, 21.6 µM; in the assay with SK-MEL-5 melanoma, 4.96 µM.

In the case of `C=C1CN(C2=NCCO2)C1`, the TGI with 786-0 renal, in the assay on ACHN renal, in the assay with HL-60(TB) leukemia, with HT29 colon, in the assay on IGROV1 ovarian and in the assay on K-562 leukemia was greater than 100 µM each time. In addition, the TGI in the assay on OVCAR-3 ovarian, in the assay with RXF 393 renal, in the assay with SF-539 CNS and in the assay with SK-MEL-5 melanoma was greater than 100 µM each time.

`S=c1[nH]c2ccc(I)cc2c(=S)n1Cc1ccccc1`: the TGI with 786-0 renal was determined as 21.4 µM; with ACHN renal, 58.7 µM; in the assay with HL-60(TB) leukemia it was 5.96 µM; in the assay on HT29 colon it was 38.9 µM; with IGROV1 ovarian, 27.6 µM; in the assay with K-562 leukemia it was 14.6 µM. Also, the TGI in the assay with OVCAR-3 ovarian was 8.07 µM; in the assay with RXF 393 renal, 9.21 µM; with SF-539 CNS it was 37.2 µM; in the assay on SK-MEL-5 melanoma, 13.2 µM.

As to `COc1ccc(N2C(=O)C3c4[nH]c5ccccc5c4C4CCCCC4C3C2=O)cc1` (configuration not stated), the TGI was 23.8 µM in the assay with 786-0 renal; greater than 100 µM in the assay with ACHN renal; 55.1 µM in the assay with HL-60(TB) leukemia; greater than 100 µM in the assay on HT29 colon; 64.3 µM in the assay with IGROV1 ovarian; 73.8 µM in the assay with K-562 leukemia. The TGI with OVCAR-3 ovarian is greater than 100 µM; in the assay on RXF 393 renal it was 55.6 µM; in the assay on SF-539 CNS, 32.8 µM; in the assay with SK-MEL-5 melanoma, 66 µM.

For the compound `COc1ccc(C2=NN=C3C(c4ccccc4)=Nc4ccccc4N3C2)cc1`, the TGI is greater than 100 µM in the assay on 786-0 renal; greater than 100 µM in the assay on ACHN renal; 38.5 µM in the assay on HL-60(TB) leukemia; 74.3 µM with HT29 colon; greater than 100 µM with IGROV1 ovarian; greater than 100 µM in the assay on K-562 leukemia. Also, the TGI in the assay with OVCAR-3 ovarian was 6.52 µM; with RXF 393 renal, 51.8 µM; in the assay with SF-539 CNS, greater than 100 µM; in the assay with SK-MEL-5 melanoma, greater than 100 µM.

For the compound `Cc1ccc(NC(=O)CSC(N)=O)cc1C`, the TGI in the assay with 786-0 renal, with ACHN renal, with HL-60(TB) leukemia, in the assay on HT29 colon, in the assay with IGROV1 ovarian and in the assay on K-562 leukemia was greater than 100 µM in each case. Moreover, the TGI with OVCAR-3 ovarian, in the assay on RXF 393 renal, with SF-539 CNS and in the assay with SK-MEL-5 melanoma was greater than 100 µM throughout.

As to `CN(C)/N=N/c1nc[nH]c1C(N)=O`, the TGI was greater than 1000 µM in the assay on 786-0 renal; greater than 1000 µM in the assay on ACHN renal; 85 µM and > 745 µM in the assay with HL-60(TB) leukemia; greater than 1000 µM in the assay on HT29 colon; greater than 1000 µM in the assay on OVCAR-3 ovarian; 99.4 µM and > 165 µM in the assay with RXF 393 renal. Also, the TGI is 99.3 µM and > 875 µM in the assay on SF-539 CNS; 96.2 µM and > 429 µM with SK-MEL-5 melanoma. The GI50 in the assay on ACHN renal was 32.5 µM and 76.6 µM; with HL-60(TB) leukemia it was 4.16 µM; with HT29 colon it was 607 µM; in the assay on IGROV1 ovarian, 129 µM; with K-562 leukemia, 39 µM; in the assay with OVCAR-3 ovarian, 101 µM. In addition, the GI50 was 93.3 µM with RXF 393 renal, 47.5 µM in the assay with SF-539 CNS and 120 µM in the assay with SK-MEL-5 melanoma.

With `CN(C)CCCNCc1cccc2ccccc12`, the TGI in the assay on 786-0 renal, with ACHN renal, in the assay on HL-60(TB) leukemia, in the assay on HT29 colon, with IGROV1 ovarian and in the assay with K-562 leukemia was greater than 100 µM in each case. Besides, the TGI in the assay with OVCAR-3 ovarian, in the assay on RXF 393 renal, with SF-539 CNS and in the assay with SK-MEL-5 melanoma was greater than 100 µM each time.

Regarding `CC(C)(C)CC(C)(C)c1ccc(O)c(C[N+](C)(C)[O-])c1`, the TGI with 786-0 renal is greater than 100 µM; in the assay with ACHN renal it was greater than 100 µM; in the assay on HL-60(TB) leukemia, 99.6 µM; in the assay on HT29 colon, greater than 100 µM; in the assay with IGROV1 ovarian, greater than 100 µM; in the assay on K-562 leukemia, greater than 100 µM. In addition, the TGI in the assay on OVCAR-3 ovarian, in the assay on RXF 393 renal, in the assay with SF-539 CNS and in the assay with SK-MEL-5 melanoma was greater than 100 µM throughout.

In the case of `CCOC(=O)/C=C(\C(=O)OCC)n1ccc(=O)[nH]c1=O`, the TGI turned out to be 18.5 µM with 786-0 renal; 23.6 µM with ACHN renal; 6.2 µM with HL-60(TB) leukemia; 31 µM in the assay on HT29 colon; 30.1 µM in the assay with IGROV1 ovarian; 19.1 µM in the assay on K-562 leukemia. The TGI was 26.1 µM with OVCAR-3 ovarian, 24.6 µM in the assay on RXF 393 renal, 75.1 µM in the assay on SF-539 CNS and greater than 56.7 µM with SK-MEL-5 melanoma.

For the compound `CC1(C)N=C(c2ccccn2)C(c2ccccn2)=NC1(C)C`, the TGI in the assay with 786-0 renal, in the assay on ACHN renal, in the assay on HL-60(TB) leukemia, in the assay with HT29 colon, in the assay on IGROV1 ovarian and with K-562 leukemia was greater than 100 µM throughout. Also, the TGI with OVCAR-3 ovarian, with RXF 393 renal, in the assay on SF-539 CNS and in the assay with SK-MEL-5 melanoma was greater than 100 µM throughout.

Regarding `COc1ccc2c(c1)OC[C@@H]1c3cc(O)c(OCc4ccccc4)cc3O[C@H]21`, the TGI was greater than 100 µM with 786-0 renal; greater than 100 µM in the assay on ACHN renal; 52 µM in the assay on HL-60(TB) leukemia; greater than 100 µM in the assay with HT29 colon; greater than 100 µM in the assay with IGROV1 ovarian; greater than 100 µM in the assay with K-562 leukemia. Besides, the TGI is greater than 100 µM with OVCAR-3 ovarian, 93.2 µM in the assay with RXF 393 renal, greater than 100 µM in the assay on SF-539 CNS and 26.5 µM with SK-MEL-5 melanoma.

In the case of `O=C1C(=Cc2ccc(Cl)c(Cl)c2)C([O-])=C([P+](c2ccccc2)(c2ccccc2)c2ccccc2)C([O-])=C1[P+](c1ccccc1)(c1ccccc1)c1ccccc1`, the TGI in the assay on 786-0 renal was 4.18 µM; in the assay on ACHN renal, 9.26 µM; with HL-60(TB) leukemia, 3.18 µM; in the assay on HT29 colon, 4.05 µM; in the assay on IGROV1 ovarian, 6.34 µM; with K-562 leukemia it was 8.33 µM. Besides, the TGI was 3.74 µM in the assay with OVCAR-3 ovarian, 3.35 µM in the assay on RXF 393 renal, 5.17 µM in the assay with SF-539 CNS and 5.24 µM in the assay with SK-MEL-5 melanoma.

For `C=C(c1ccccc1)c1ccccc1-c1cc(-c2ccccc2)cc(-c2ccccc2)n1`, the TGI with 786-0 renal, with ACHN renal, in the assay on HL-60(TB) leukemia, with HT29 colon, with IGROV1 ovarian and with K-562 leukemia was greater than 100 µM in each case. Moreover, the TGI with OVCAR-3 ovarian, with RXF 393 renal, in the assay with SF-539 CNS and in the assay with SK-MEL-5 melanoma was greater than 100 µM in each case.

As to `CCOC(=O)c1c(-c2cccc3ccccc23)c(C#N)c(=S)n(C2OC(COC(C)=O)C(OC(C)=O)C(OC(C)=O)C2OC(C)=O)c1C` (configuration not stated), the TGI with 786-0 renal, with ACHN renal, with HL-60(TB) leukemia, in the assay on HT29 colon, in the assay with IGROV1 ovarian and in the assay on K-562 leukemia was greater than 100 µM in each case. Moreover, the TGI in the assay with OVCAR-3 ovarian, with RXF 393 renal, in the assay with SF-539 CNS and with SK-MEL-5 melanoma was greater than 100 µM throughout.
